Source: EPA's ToxValDB 9.5

Test system: Rattus norvegicus
[1] = reproduction developmental, duration: 70 days, oral, gavage, M, Crl:CD(SD), generation: P0, P0: Whole Body: Terminal Body Weight, Absolute
[2] = reproduction developmental, duration: 84 days, oral, gavage, M, Crl:CD(SD), generation: P0, P0: Seminal Vesicle: Seminal Vesicle Weight, Absolute + P0: Seminal Vesicle: Seminal Vesicle Weight, Relative + P0: Whole Body: Clinical …
[3] = reproduction developmental, duration: 84 days, oral, gavage, M, Crl:CD(SD), generation: P0, P0: Whole Body: Body Weight Change + P0: Whole Body: Terminal Body Weight, Absolute
[4] = reproduction developmental, duration: 131 days, oral, gavage, F, Crl:CD(SD), generation: P0, P0: Uterus: Uterus Weight, Absolute + P0: Uterus: Uterus Weight, Relative + P0: Whole Body: Clinical Observations
[5] = reproduction developmental, duration: 131 days, oral, gavage, F, Crl:CD(SD), generation: P0, P0: Whole Body: Body Weight Change + P0: Whole Body: Body Weight, Absolute + P0: Whole Body: Mortality
[6] = reproduction developmental, duration: 131 days, oral, gavage, M/F, Crl:CD(SD), generation: F1, F1: Kidney: Kidney Abnormalities + F1: Whole Body: Clinical Observations + F1: Whole Body: Dams with Liveborn Pups + F1: Whole Body: …
[7] = reproduction developmental, duration: 131 days, oral, gavage, M/F, Crl:CD(SD), generation: F1, F1: Whole Body: Pup Weight Relative to Litter
[8] = reproduction developmental, oral, gavage, F, Sprague-Dawley, generation: P0, P0: Developmental: Uterus: Implantation + P0: Developmental: Whole Body: No. Male Pups per No. of Pups Sexed + P0: Endocrine: Pituitary: …
[9] = reproduction developmental, oral, gavage, F, Sprague-Dawley, generation: P0, P0: Developmental: Uterus: Implantation + P0: Developmental: Whole Body: No. Male Pups per No. of Pups Sexed + P0: General Toxicity: Whole …
[10] = reproduction developmental, oral, gavage, M/F, Crl:CD(SD), generation: P0, P0: Reproductive: Whole Body: Gestation Index
[11] = reproduction developmental, oral, gavage, M, Crl:CD(SD), generation: P0, P0: General Toxicity: Whole Body: Necropsy Appeared Normal + P0: Nervous: CNS: Latency to Mount
[12] = reproduction developmental, oral, gavage, M, Sprague-Dawley, generation: P0, P0: General Toxicity: Whole Body: Body Weight Change + P0: General Toxicity: Whole Body: Clinical Observations + P0: General Toxicity: Whole…
[13] = short-term, duration: 28 days, oral, gavage, F, Crl:CD(SD), Liver: Liver Weight, Relative + Liver: Liver, Enlarged + Teeth: Incisors, Discolored
[14] = short-term, duration: 28 days, oral, gavage, F, Crl:CD(SD), Whole Body: Dystocia
[15] = short-term, duration: 28 days, oral, gavage, M/F, Crl:CD(SD), Adrenal: Adrenal Cortex Histopathology + Blood: Chloride (CL), Blood + Blood: Globulin (G), Blood + Blood: Potassium (K), Blood + Blood: …
[16] = short-term, duration: 28 days, oral, gavage, M/F, Crl:CD(SD), Whole Body: Body Weight Change + Whole Body: Body Weight, Absolute
[17] = short-term, duration: 28 days, oral, gavage, M, Crl:CD(SD), Teeth: Incisors, Discolored + Teeth: Teeth, Mottled

OCCC(F)(F)C(F)(F)C(F)(F)C(F)(F)C(F)(F)C(F)(F)F [2-(Perfluorohexyl)ethanol]
LEL [1]: 250 mg/kg-day | NEL [1]: 125 mg/kg-day | NEL (reproduction developmental, duration: 84 days, oral, gavage, M, Crl:CD(SD), generation: P0, P0: Epididymis: Epididymis Histopathology + P0: Epididymis: Epididymis Weight, Absolute + P0: Epididymis: Epididymis Weight, Relative + P0: …): 250 mg/kg-day | LEL [2]: 125 mg/kg-day | NEL [2]: 25 mg/kg-day | LEL [3]: 250 mg/kg-day | NEL [3]: 125 mg/kg-day | NEL (reproduction developmental, duration: 131 days, oral, gavage, F, Crl:CD(SD), generation: P0, P0: Bladder: Urinary Bladder Histopathology + P0: Kidney: Kidney Histopathology + P0: Lung: Lung Histopathology + P0: Ovary: Ovary …): 250 mg/kg-day | LEL [4]: 125 mg/kg-day | NEL [4]: 25 mg/kg-day | LEL [5]: 250 mg/kg-day | NEL [5]: 125 mg/kg-day | LEL [6]: 250 mg/kg-day | NEL [6]: 125 mg/kg-day | NEL (reproduction developmental, duration: 131 days, oral, gavage, M/F, Crl:CD(SD), generation: F1, F1: Whole Body: Dams with Stillborn Pups + F1: Whole Body: Live Pups Born + F1: Whole Body: Surviving Pups Per Litter): 250 mg/kg-day | LEL [7]: 125 mg/kg-day | NEL [7]: 25 mg/kg-day | LOAEL [8]: 125 mg/kg-day | NOAEL [8]: 25 mg/kg-day | LOAEL [9]: 125 mg/kg-day | NOAEL [9]: 25 mg/kg-day | NOAEL (reproduction developmental, oral, gavage, F, Sprague-Dawley, generation: P0, P0: Endocrine: Pituitary: Pituitary Gland Histopathology + P0: Endocrine: Pituitary: Pituitary Gland Weight, Absolute + P0: Endocrine: …): 250 mg/kg-day | LOAEL [10]: 125 mg/kg-day | NOAEL [10]: 25 mg/kg-day | LOAEL [11]: 225 mg/kg-day | NOAEL [11]: 75 mg/kg-day | NOAEL (reproduction developmental, oral, gavage, M, Crl:CD(SD), generation: P0, P0: Nervous: CNS: Latency to Mount): 225 mg/kg-day | LOAEL (reproduction developmental, oral, gavage, M, Sprague-Dawley, generation: P0, P0: Endocrine: Pituitary: Pituitary Gland Histopathology + P0: Endocrine: Pituitary: Pituitary Gland Weight, Absolute + P0: Endocrine: …): 125 mg/kg-day | LOAEL [12]: 125 mg/kg-day | NOAEL [12]: 25 mg/kg-day | NEL (short-term, duration: 4 weeks, inhalation, F, Crl:CD(SD), Adrenal: Adrenal Gland Weight, Absolute + Adrenal: Adrenal Gland Weight, Absolute, Recovery + Adrenal: Adrenal Gland Weight, Relative + …): 1490 mg/m3 | LEL (short-term, duration: 4 weeks, inhalation, F, Crl:CD(SD), Blood: Hematocrit (HCT) + Blood: Hemoglobin (HGB) + Blood: Red Blood Cell (RBC) + Bone: Decalcification, Trabeculae (4 wk) + Bone: …): 1490 mg/m3 | NEL (short-term, duration: 4 weeks, inhalation, F, Crl:CD(SD), Blood: Hematocrit (HCT) + Blood: Hemoglobin (HGB) + Blood: Red Blood Cell (RBC) + Liver: Alanine Aminotransferase (ALT), Blood + Liver: …): 149 mg/m3 | NEL (short-term, duration: 4 weeks, inhalation, M, Crl:CD(SD), Adrenal: Adrenal Gland Weight, Absolute + Adrenal: Adrenal Gland Weight, Absolute, Recovery + Adrenal: Adrenal Gland Weight, Relative + …): 1490 mg/m3 | LEL (short-term, duration: 4 weeks, inhalation, M, Crl:CD(SD), Bone: Decalcification, Trabeculae (4 wk) + Bone: Decalcification, Trabeculae (8 wk) + Kidney: Total Protein (TP), Urine + Liver: Albumin (A…): 1490 mg/m3 | NEL (short-term, duration: 4 weeks, inhalation, M, Crl:CD(SD), Kidney: Total Protein (TP), Urine + Liver: Albumin (A), Blood + Liver: Liver Weight, Absolute + Liver: Liver Weight, Relative + Liver: Liver…): 149 mg/m3 | LEL [13]: 25 mg/kg-day | NEL [13]: 5 mg/kg-day | NEL (short-term, duration: 28 days, oral, gavage, F, Crl:CD(SD), Teeth: Teeth, Mottled): 125 mg/kg-day | LEL [14]: 225 mg/kg-day | NEL [14]: 75 mg/kg-day | LEL [15]: 225 mg/kg-day | NEL [15]: 75 mg/kg-day | LEL [16]: 75 mg/kg-day | NEL [16]: 25 mg/kg-day | NEL (short-term, duration: 28 days, oral, gavage, M, Crl:CD(SD), Liver: Liver Weight, Relative + Liver: Liver, Enlarged): 125 mg/kg-day | LEL [17]: 25 mg/kg-day | NEL [17]: 5 mg/kg-day
